Reference: patent US20230324370A1, “A DNA-Based Voltmeter for Organelles” (The University of Chicago, priority 2020, published 2023)

Legend:
[1] = tested on: cytosolic Ca^2+ in COS-7 cells; assay: Cytosolic calcium imaging with Fluo-4 AM upon ATP addition; type: cell-based, Monkey; conditions: COS-7, 100 µM ATP
lysosomes of COS-7 cells = assay: Time lapse imaging of lysosomal membrane potential upon ATP addition; type: cell-based, Monkey; conditions: COS-7, 100 µM ATP
Text: Time lapse Imaging: […] Image acquisition was briefly paused at indicated time for addition of chemicals (ML-SA1, Baf-A1, ATP or DMSO) to cells. To minimize bleaching, time-lapse imaging was done at single focal plane. Z-drift compensator module from IX83 was applied to minimize out of focus drift during time lapse imaging. The extracellular ATP induced cytosolic calcium increase was imaged by labeling COS-7 cells with cell permeable calcium sensitive dye Fluo4-AM ester. Time-lapse imaging of Fluo-4 labeled COS-7 cells were acquired using a 480/20 band pass excitation filter, 520/40 band pass emission filter and 89016 dichroic, at 1 s interval for 20 mins.

[2] = tested on: lysosomes in HEK 293T cells; assay: In situ lysosomal membrane potential measurement with Voltair^IM, with and without pharmacological treatment; type: cell-based, Human; conditions: for ΔVLys: HEK 293T
[3] = target: T1, human macrophage scavenger receptor (hMSR1) (Homo sapiens, UniProt P21757); assay: Competition assay of DNA device uptake with maleylated BSA; type: cell-based
T1 construct: expressed in transfected cells; host or cells: HEK 293T
T1 sequence (P21757 1-451): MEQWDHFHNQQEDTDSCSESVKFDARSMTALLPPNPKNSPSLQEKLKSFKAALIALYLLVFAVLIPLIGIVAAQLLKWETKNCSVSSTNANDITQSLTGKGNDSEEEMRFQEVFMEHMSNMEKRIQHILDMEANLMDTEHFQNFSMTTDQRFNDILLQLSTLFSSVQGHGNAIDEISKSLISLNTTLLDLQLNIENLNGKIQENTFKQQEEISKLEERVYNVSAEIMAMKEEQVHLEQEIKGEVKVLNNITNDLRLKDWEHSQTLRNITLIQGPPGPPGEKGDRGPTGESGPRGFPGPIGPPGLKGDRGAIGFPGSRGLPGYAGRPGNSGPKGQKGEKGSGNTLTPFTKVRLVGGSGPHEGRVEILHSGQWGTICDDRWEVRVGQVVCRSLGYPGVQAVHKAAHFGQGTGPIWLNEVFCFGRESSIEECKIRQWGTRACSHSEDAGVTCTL
Experimental: Competition assay: HEK 293T cells transfected with hMSR1-CFP were washed with 1X PBS, pH 7.4 prior to labeling with the DNA device. Cells were incubated with 20 µM maleylated BSA (mBSA) for 15 min, followed by a 20 min pulse of 500 nM DNA device and 20 µM mBSA to allow internalization by receptor mediated endocytosis. Control cells were washed and pulsed for 20 mins in 500 nM DNA device without mBSA. Cells were then washed three times with 1× PBS and chased for 30 mins in complete DMEM media. Complete media was replaced with Opti-MEM solution (Thermofisher) and imaged by widefield microscopy for quantification and confocal microscopy for representative images. Whole cell intensities in the Atto647N channel were quantified for cells expressing hMSR1-CFP observed in CFP channel. The mean intensity from three different experiments were normalized against the no mBSA control, for n~50 cells.

[4] = tested on: endogenous scavenger receptor; assay: Competition assay of DNA nanodevice uptake in cell types expressing endogenous scavenger receptor; type: cell-based; conditions: THP-1, BHK-21, HDF, RAW 264.7, T-47D, COS-7
early endosomes = assay: Time-lapse imaging of early endosome membrane potential upon TRPML1 activation; type: cell-based; conditions: ML-SA1
[5] = tested on: recycling endosomes in HEK 293T cells; assay: Organellar membrane potential measurement, recycling endosomes; type: cell-based, Human; conditions: 500 nM bafilomycin A1
[6] = tested on: trans Golgi network in HEK 293 cells expressing scFv-furin; assay: Organellar membrane potential measurement, trans Golgi network; type: cell-based, Human; conditions: V-ATPase inhibition (bafilomycin A1 500 nM per FIG. 4)
[7] = in the presence of Torin-1 and trans-ned-19 1 µM

Q: What does the source list for `Nc1ncnc2c1ncn2[C@@H]1O[C@H](COP(=O)(O)OP(=O)(O)OP(=O)(O)O)[C@@H](O)[C@H]1O` [ATP]?
A: time to maximum cytosolic Ca^2+ level after addition [1]: ~ 5 seconds; acute hyperpolarization of the lysosomal membrane (lysosomes of COS-7 cells): +75 mV; duration of lysosomal hyperpolarization (lysosomes of COS-7 cells): ~ 100 seconds; time from maximal cytosolic Ca^2+ elevation to lysosomal hyperpolarization (lysosomes of COS-7 cells): ~ 80 seconds

Q: Which ΔVLys ([2]; ML-SA1 as well as BK channel agonist NS1619) does the source give for `O=c1[nH]c2cc(C(F)(F)F)ccc2n1-c1cc(C(F)(F)F)ccc1O` [NS1619] here?
A: 50 mV

Q: How did the VLys [2, 7] turn out when `COc1ccc([C@H]2N[C@H](C(=O)O)Cc3c2[nH]c2ccccc32)cc1CN1CCN(c2ccccc2F)CC1` [trans-ned-19] was run?
A: +80 mV

Q: And the “ΔVLys due to TPC2 channel inhibition” value [2, 7]?
A: 35 mV

Q: For “maleylated BSA: a strong ligand for scavenger receptors”, which “effect on endocytosis of Voltair^PM” value ([3]; CFP-hMSR1 transfected HEK 293T, 30eq. mBSA, 500 nM Voltair^PM, 30 mins) is on record?
A: blocks endocytosis

Q: And the “effect on uptake of Voltair^IM” value ([3]; HEK 293T cells expressing hMSR1-CFP)?
A: efficiently competed out

Q: What about the “effect on DNA nanodevice uptake” value [4] of the same compound?
A: decreases uptake

Q: With `CCC(=O)N1CCN(c2ccc(-n3c(=O)ccc4cnc5ccc(-c6cnc7ccccc7c6)cc5c43)cc2C(F)(F)F)CC1` [Torin-1] as the compound, how does the “reduction of VLys from the resting VLys” value ([2]; Torin-1 1 µM, mTORC1 inhibition) read?
A: ~60 mV

Q: What does the source list for `CC1CC(C)(C)N(C(=O)CN2C(=O)c3ccccc3C2=O)c2ccccc21` (stereo not shown) [ML-SA1]?
A: membrane potential in early endosomes (VEE) upon treatment (early endosomes): stayed constant; ΔVLys ([2]; ML-SA1 20 µM, TRPML1 activator): 90 mV

Q: `CO/C1=C\C(C)=C\[C@@H](C)[C@@H](O)[C@@H](C)C/C(C)=C/C=C/[C@H](OC)[C@@H]([C@@H](C)[C@@H](O)[C@H](C)[C@@]2(O)C[C@@H](O)[C@H](C)[C@@H](C(C)C)O2)OC1=O` [bafilomycin A1] was tested. Which “change of VRE upon V-ATPase inhibition” value [5] did it give?
A: no change

Q: And the “membrane potential remaining across the TGN after V-ATPase inhibition” value [6]?
A: +75 mV

Q: And the “reduction of VLys from the resting membrane potential” value ([2]; bafilomycin A1 500 nM, V-ATPase inhibition)?
A: ~ 100 mV
